Measurements from PubChem BioAssay (NCI).
Several values for one entry are separate records, joined by “and”; a condition that tells them apart may be missing. Equal values may be shown once.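 Tested at 5 concentrations; 48 h exposure; 96-well plates; endpoints linearly interpolated, else capped at highest concentration. GI50: concentration for 50% inhibition of growth. TGI: total growth inhibition.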

System: MDA-MB-468 breast
Assay: DTP human tumour cell line panel, 48 h

CCN1C(=O)N(CC)C2C1NN=c1s/c(=C\c3ccc(C(F)(F)F)cc3)c(=O)n12 (stereo not drawn)
GI50: 318 nM | TGI: 24200 nM

COc1cc(NS(C)(=O)=O)ccc1Cc1c2ccccc2nc2ccccc12
GI50: 310 nM | TGI: 1810 nM

O=C(c1ccccc1)C1OC1C(=O)c1ccccc1 (stereo not drawn)
GI50: 1710 nM | TGI: 6720 nM

CC(C)=Cc1cccc2[nH]c(O)c(N=Nc3ccc(S(N)(=O)=O)cc3)c12
GI50: > 5220 nM | TGI: > 25000 nM

COc1ccc(C2CC(c3ccc(OC)cc3O)=NN2c2ccc(S(N)(=O)=O)cc2)cc1 (stereo not drawn)
GI50: 22300 nM | TGI: > 100000 nM

COC(=O)C1=C(C(=O)ON)[C@@H]2C=C[C@@]1([C@@H](Cc1ccccc1)Nc1ccccc1)O2
GI50: 1480 nM | TGI: 2970 nM

COc1cc2c(cc1O)c(=O)n(CCN(C)C)c1c3cc4c(cc3ncc21)OCO4
GI50: < 10 nM | TGI: 14 nM

CCOC(=O)Nc1ccc2c(c1)C(=O)N(CC)c1ccccc1O2
GI50: 201 nM

O=C(Nc1cn[nH]c1-c1nc2ccc(CN3CCOCC3)cc2[nH]1)NC1CC1
GI50: 35.5 nM and 207 nM | TGI: 1670 nM and 9370 nM

CC1=C2[C@@H](CC1)[C@]1(C)O[C@@](C(C)C)(C[C@H]1OC(=O)CO)[C@H]2OC(=O)CCCc1ccccc1
GI50: 12400 nM | TGI: 26300 nM

Cc1ccc(-c2nc(/C=N/Nc3cc(C)nc4ccc(Br)cc34)c(C)o2)cc1
GI50: 1950 nM | TGI: 3870 nM

O=C(Nc1n[nH]c2nc(-c3ccc(O)cc3)c(Br)cc12)C1CC1
GI50: 3930 nM | TGI: 8790 nM

O=c1cc(-c2ccccc2)oc2c1ccc1ccccc12
GI50: 23600 nM | TGI: 95400 nM

O=C1/C(=C/c2ccc(F)cc2)CN(C(=O)C(Cl)Cl)C/C1=C\c1ccc(F)cc1
GI50: 203 nM | TGI: 480 nM

C/C(CC(C)(C)N1CC1)=N\NC(=O)Nc1cccc2ccccc12
GI50: 1920 nM | TGI: 4610 nM

CCCCOc1ccc(S(=O)(=O)N2CCN(c3nccc(N4CCOCC4)n3)CC2)cc1
GI50: 456 nM | TGI: 2530 nM

CCOC(=O)c1c2c(n3ccc(NC(=O)CCN4CCCCC4)cc13)C(=O)c1ncccc1C2=O
GI50: 1760 nM | TGI: 3390 nM

COc1ccc(-c2cc(-c3ccc(OC)cc3)nc(NCCCNc3ccnc4cc(Cl)ccc34)n2)cc1
GI50: 1270 nM | TGI: 2790 nM

CCc1cccc(NC(=O)Nc2ccc(Oc3ccc4nc(NC(=O)OC)[nH]c4c3)cc2)c1
GI50: 75.1 nM | TGI: 2960 nM

S=C1SCN(Cc2ccccc2)CN1Cc1ccccc1
GI50: 1200 nM | TGI: 17100 nM

CC[C@]12C=CCN3CC[C@@]4(c5ccc(OC)cc5N(C)[C@H]4[C@@](O)(C(=O)OC)[C@@H]1OC(=O)CCC(=O)O[C@H]1CC[C@H]4[C@@H]5CC[C@H]6CC(=O)CC[C@]6(C)[C@H]5CC[C@]14C)[C@@H]32
GI50: 3130 nM | TGI: > 100000 nM

COc1ccc(CNCCCN2C(=O)c3ccc4c5c(ccc(c35)C2=O)C(=O)N(CCCNCc2ccc(OC)c(OC)c2OC)C4=O)c(OC)c1OC
GI50: 79.3 nM | TGI: 151 nM

C#Cc1cccc(NC(=O)c2cccc(NC(=O)CCl)c2)c1
GI50: 17400 nM | TGI: 52700 nM

COc1ccc2nc3c(cc2c1)C(=O)CC(c1ccccc1)C3 (stereo not drawn)
GI50: 4080 nM | TGI: > 100000 nM

O=c1oc2ccc(Cl)cc2c(=O)n1-c1ccc(F)cc1F
GI50: 1980 nM | TGI: 5710 nM

CCn1c(SCC(=O)Nc2cc(C(F)(F)F)ccc2Cl)nc2ccccc2c1=O
GI50: 14000 nM | TGI: > 100000 nM

COc1ccc(C2=NN(C(C)=O)C(c3ccc(Oc4ccnc5cc(Cl)ccc45)c(OC)c3)C2)cc1 (stereo not drawn)
GI50: 7430 nM | TGI: 65100 nM

COc1ccc([C@@H]2[C@@H](O)C(=O)N2c2cc(OC)c(OC)c(OC)c2)cc1Cl
GI50: < 14.1 nM | TGI: > 35900 nM

CC(=O)Nc1ccc(OC(C)=O)cc1
GI50: < 10 nM | TGI: < 101 nM

O=[N+]([O-])c1ccc(N=Nc2c(Cl)cc(O)cc2Cl)cc1
GI50: 772 nM | TGI: 5810 nM

CCCS(=O)(=O)Nc1cccc(Nc2ncnc3cc(NC(=O)CCl)ccc23)c1Cl
GI50: 3160 nM | TGI: 8520 nM

O=C1c2cc3c(cc2-c2c1c1ccc(F)cc1c(=O)n2C[C@H](O)[C@H](O)[C@H](O)CO)OCO3
GI50: 64.6 nM | TGI: 213 nM

CCN(CC)CCn1c(=O)c2cc(OC)c(OC)cc2c2ccc3cc4c(cc3c21)OCO4
GI50: 840 nM | TGI: 19800 nM

CC[C@H]1CCC/C=C/[C@@H]2C[C@H](O)C[C@H]2[C@H](O)/C=C/C(=O)O1
TGI: 16.7 nM

Cc1c[nH]c(=O)n(Cc2nnc(CCC(=O)c3nc4ccccc4[nH]3)o2)c1=O
GI50: 156 nM | TGI: 553 nM

O=C1c2ccccc2C(=O)c2c1oc1c2c(=O)[nH]c2ccc(Cl)cc21
GI50: 249 nM | TGI: 868 nM

O=C(CCCC(=O)N/N=C/c1cc(Cl)ccc1O)N/N=C\c1cc(Cl)ccc1O
GI50: 2220 nM | TGI: 9300 nM

Fc1ccc(-c2ncn(CCCN3CCOCC3)c2-c2ccncc2)cc1
GI50: > 25000 nM | TGI: > 25000 nM

CCCCc1n(Cc2ccc3ccccc3n2)cc[n+]1Cc1ccc2ccccc2n1
GI50: 244 nM | TGI: 1640 nM

COc1c(O)cc2c(c1OC)-c1ccc(SC)c(=O)cc1C(NC(C)=O)CC2 (stereo not drawn)
GI50: 3020 nM | TGI: > 100000 nM
